# Results taken from patent US6939711B2, “Control of gene expression in plants by receptor mediated transactivation in the presence of a chemical ligand” (Syngenta Investment Corporation, priority 1995, dated 2005).
# Read-outs that look alike come from different tables or passages of the source.
# Columns and labels:
# [1] = target: T1, receptor polypeptide EcR and chimeric receptor polypeptide VP16-USP (Drosophila melanogaster, UniProt P34021); format: cell-based; details: 48 hours, maize cells, 35S/EcR + 35S/VP16-USP, (EcRE)6-Bz1/Luc
# T1 construct: expressed in transfected cells; host or cells: maize suspension cells (microprojectile bombardment)
# T1 sequence (P34021 1-878): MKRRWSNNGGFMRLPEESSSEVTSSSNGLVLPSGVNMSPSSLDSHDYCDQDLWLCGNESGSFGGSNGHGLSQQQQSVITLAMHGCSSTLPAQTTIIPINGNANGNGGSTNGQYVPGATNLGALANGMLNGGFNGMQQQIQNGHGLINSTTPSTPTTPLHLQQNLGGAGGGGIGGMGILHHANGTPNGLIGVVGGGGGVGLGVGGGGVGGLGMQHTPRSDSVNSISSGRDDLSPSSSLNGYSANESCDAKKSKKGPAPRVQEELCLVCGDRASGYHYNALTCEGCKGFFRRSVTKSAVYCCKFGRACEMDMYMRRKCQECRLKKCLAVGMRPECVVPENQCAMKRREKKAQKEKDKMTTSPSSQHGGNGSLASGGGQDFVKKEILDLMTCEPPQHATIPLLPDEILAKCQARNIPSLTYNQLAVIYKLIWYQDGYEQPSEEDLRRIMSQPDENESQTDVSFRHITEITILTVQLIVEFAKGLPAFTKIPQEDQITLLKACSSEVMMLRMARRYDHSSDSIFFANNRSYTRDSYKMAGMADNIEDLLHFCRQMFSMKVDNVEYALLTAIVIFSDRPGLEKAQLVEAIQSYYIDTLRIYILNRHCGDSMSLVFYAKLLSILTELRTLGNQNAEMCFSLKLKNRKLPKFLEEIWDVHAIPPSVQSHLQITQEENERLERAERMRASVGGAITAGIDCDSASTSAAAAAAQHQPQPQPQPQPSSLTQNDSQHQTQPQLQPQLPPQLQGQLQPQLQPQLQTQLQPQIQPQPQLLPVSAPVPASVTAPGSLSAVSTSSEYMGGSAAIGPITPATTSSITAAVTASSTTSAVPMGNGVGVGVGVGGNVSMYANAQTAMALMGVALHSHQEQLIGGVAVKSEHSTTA
# Description: (§1) Control of target polypeptide expression by various receptor polypeptides, including the chimeric receptor polypeptides of the present invention, can be shown by simultaneously transforming plant cells with the necessary gene constructions using high velocity microprojectile bombardment, followed by biochemical assay for the presence of the target polypeptide. The necessary gene constructions comprise a first receptor expression cassette which encodes a first receptor polypeptide and a second receptor expression cassette which encodes a second receptor polypeptide. In addition, a target expression cassette which-encodes a target polypeptide is also necessary (FIG. 1).
# The expression cassettes were simultaneously delivered to maize suspension cells cultured in liquid N6 medium (Chu et al. Scientia Sinica XVIII:659-668, 1975) by high velocity microprojectile bombardment using standard techniques of DNA precipation onto microprojectiles and high velocity bombardment driven by compressed helium (PDS-1000/He, BioRad, Hercules, Calif.). Transfected cells were incubated in liquid suspension in the presence of the appropriate chemical ligand for approximately 48 hours in N6 media After incubation, the transformed cells were harvested then homogenized at 0° C. Debris in the extracts was removed by centrifugation at 10,000 g at 4° C. for 5 minutes. Target polypeptide expression was detected by assaying the extract for the presence of the product encoded by the target expression cassette. One commonly used coding sequence for the target polypeptide when testing control of expression by the receptor polypeptides in the presence of a chemical ligand is firefly luciferase. The activity of firefly luciferase is determined by quantitating the chemiluminescence produced by luciferase catalyzed […] of luciferin using ATP as substrate (Promega Luciferase Kit, cat. no. E1500), using an Analytical Luminescence Model 2001 luminometer. […]
# [2] = target: T2, receptor polypeptides EcR and USP (Drosophila melanogaster, UniProt P34021); assay: Luciferase reporter transactivation, 35S/EcR + 35S/USP with (EcRE)5-Bz1/Luc co-transformed into maize cells; format: cell-based; details: approximately 48 hours
# T2 construct: expressed in transfected cells; host or cells: maize suspension cells (microprojectile bombardment)
# T2 sequence (P34021 1-878): T1 sequence (P34021 1-878)
# T2 sequence (P20153 1-508 partner): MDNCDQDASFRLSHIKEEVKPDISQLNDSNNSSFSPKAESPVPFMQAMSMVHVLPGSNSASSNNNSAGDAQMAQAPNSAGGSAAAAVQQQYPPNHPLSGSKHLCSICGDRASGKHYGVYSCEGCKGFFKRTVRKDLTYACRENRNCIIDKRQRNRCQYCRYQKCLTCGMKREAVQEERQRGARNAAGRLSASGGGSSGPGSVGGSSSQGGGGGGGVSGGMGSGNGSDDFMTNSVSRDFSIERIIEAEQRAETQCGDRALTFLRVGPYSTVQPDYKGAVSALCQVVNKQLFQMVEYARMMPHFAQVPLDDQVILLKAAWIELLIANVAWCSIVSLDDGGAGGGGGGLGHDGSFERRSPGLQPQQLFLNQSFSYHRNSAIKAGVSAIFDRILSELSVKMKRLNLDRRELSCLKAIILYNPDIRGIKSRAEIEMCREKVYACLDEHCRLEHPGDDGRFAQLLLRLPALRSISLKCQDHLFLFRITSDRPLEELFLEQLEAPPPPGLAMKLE
# Description: as §1
# (§2) The expression cassettes were simultaneously delivered to maize suspension cells cultured in liquid N6 medium (Chu et al. Scientia Sinica XVIII:659-668, 1975) by high velocity microprojectile bombardment using standard techniques of DNA precipation onto microprojectiles and high velocity bombardment driven by compressed helium (PDS-1000/He, BioRad, Hercules, Calif.). […] Target polypeptide expression was detected by assaying the extract for the presence of the product encoded by the target expression cassette. […]
# [3] = target: T3, receptor polypeptides GAL4-EcR^330-878 and USP-VP16 (Drosophila melanogaster, UniProt P34021); assay: Luciferase reporter transactivation, 35S/GAL4-EcR^330-878 + 35S/USP-VP16 with (GAL4)10-Bz1/Luc in maize cells; format: cell-based
# T3 construct: expressed in transfected cells; host or cells: maize suspension cells (microprojectile bombardment)
# Description: as §1, §2
# [4] = target: T4, receptor polypeptide USP and chimeric receptor polypeptide EcR^227-825-C1 (Drosophila melanogaster, UniProt P34021); assay: Luciferase reporter transactivation, 35S/USP + 35S/EcR^227-825-C1 with (EcRE)6-Bz1/Luc in maize cells; format: cell-based; details: 10 μM ligand, 48 hours, 35S/USP + 35S/EcR^227-825-C1, (EcRE)6-Bz1/Luc
# T4 construct: expressed in transfected cells; host or cells: maize suspension cells (microprojectile bombardment)
# Description: as §1, §2
# [5] = target: T5, receptor polypeptides GAL4-EcR^330-825-C1 and USP-VP16 (UniProt P34021); assay: Luciferase reporter transactivation, 35S/GAL4-EcR^330-825-C1 + 35S/USP-VP16 with (GAL4)10-Bz1/Luc in maize cells; format: cell-based, Drosophila; details: 10 μM ligand, approximately 48 hours, 35S/GAL4-EcR^330-825-C1 + 35S/USP-VP16, (GAL4)10-Bz1/Luc
# T5 construct: expressed in transfected cells; host or cells: maize suspension cells (microprojectile bombardment)
# Description: as §1, §2
# [6] = target: T6, receptor polypeptides GAL4-EcR^330-825-C1 and VP16-USP (Drosophila melanogaster, UniProt P34021); assay: Luciferase reporter transactivation, 35S/GAL4-EcR^330-825-C1 + 35S/VP16-USP with (GAL4)10-Bz1/Luc in maize cells; format: cell-based; details: 10 μM ligand, approximately 48 hours
# T6 construct: expressed in transfected cells; host or cells: maize suspension cells (microprojectile bombardment)
# Description: as §1, §2
# [7] = target: USP-VP16 chimeric receptor polypeptide (Drosophila; herpes simplex virus) (UniProt P20153); assay: cell-based or functional assay
compound,measurement,setting,value
"CC(C)CC[C@@H](O)[C@](C)(O)[C@H]1CC[C@@]2(O)C3=CC(=O)[C@]4(O)C[C@@H](O)[C@@H](O)C[C@]4(C)[C@H]3[C@H](O)C[C@]12C [Muristerone, muristerone]",Luciferase Activity (light units),[1]; 2 μM ligand,"12,374 light units"
same,Luciferase Activity (light units),[2]; 2 μM ligand,1351 light units
"CCc1ccc(C(=O)NN(C(=O)c2cc(C)cc(C)c2)C(C)(C)C)cc1 [RH5992, tebufenozide]",level of expression of luciferase above that observed in the absence of chemical ligand,"[3]; 10 μM RH5992, GAL4-EcR^330-878 + USP-VP16, maize cells",36 fold
same,Luciferase Activity (light units),"[3]; 10 μM ligand, approximately 48 hours, maize cells, 35S/GAL4-EcR^330-878 + 35S/USP-VP16, (GAL4)10-Bz1/Luc","130,601 light units"
same,Luciferase Activity (light units),[1]; 10 μM ligand,"7,003 light units"
same,Luciferase Activity (light units),[4],"24,631 light units"
same,Luciferase Activity (light units),[2]; 10 μM ligand,860 light units
same,Luciferase Activity (light units),[5],"37,579 light units"
same,Luciferase Activity (light units),[6],"11,069 light units"
C[C@H]([C@H](O)CCC(C)(C)O)[C@H]1CC[C@@]2(O)C3=CC(=O)[C@@H]4C[C@@H](O)[C@@H](O)C[C@]4(C)[C@H]3CC[C@]12C [ecdysone],Luciferase Activity (light units),[1]; 1 μM ligand,"7,420 light units"
GAL4-EcR^330-878 chimeric receptor polypeptide (from UniProt P04386 1-147; P34021 330-878),"Luciferase Activity (light units), (GAL4)10-Bz1/Luc target cassette in maize cells, with 10 uM RH5992",[7],131000 light units
same,"Luciferase Activity (light units), (GAL4)10-Bz1/Luc target cassette in maize cells, without RH5992",[7],3590 light units
same,level of expression of the target polypeptide luciferase with RH5992 over that in the absence of chemical ligand,[7],36 fold
